Several values for one entry are separate records, joined by “and”; a condition that tells them apart may be missing. Equal entries are not always repeated.
Experiments:
T. brucei PKA = T. brucei PKA (Trypanosoma brucei brucei, UniProt Q9GU80); assay: In vivo PKA reporter assay (VASP Ser-157 phosphorylation, western blot); type: cell-based; details: for effect on in vivo PKA activity (VASP phosphorylation), in words: wild type background; for % VASP phosphorylation: independent replicates;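 as to % VASP phosphorylation: Phosphorylated VASP as percent of total VASP band signal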;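 as to all read-outs here: T. brucei cells expressing human VASP as heterologous PKA substrate, compound exposure at 37 °C, western blot of phospho (50 kDa) versus unphosphorylated (46 kDa) VASP band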
Chain of T. brucei PKA (Q38DS1 entry or part of it): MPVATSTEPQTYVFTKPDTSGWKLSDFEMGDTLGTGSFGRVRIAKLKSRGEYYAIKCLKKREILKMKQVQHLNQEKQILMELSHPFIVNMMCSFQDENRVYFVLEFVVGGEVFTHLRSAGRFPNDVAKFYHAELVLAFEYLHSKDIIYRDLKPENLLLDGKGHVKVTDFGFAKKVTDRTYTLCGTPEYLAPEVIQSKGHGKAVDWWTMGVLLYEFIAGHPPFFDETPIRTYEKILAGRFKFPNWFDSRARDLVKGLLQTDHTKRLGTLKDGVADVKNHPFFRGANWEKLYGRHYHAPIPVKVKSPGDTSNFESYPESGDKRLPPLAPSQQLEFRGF
Chain of T. brucei PKA (Q38DR5 entry or part of it, further chain): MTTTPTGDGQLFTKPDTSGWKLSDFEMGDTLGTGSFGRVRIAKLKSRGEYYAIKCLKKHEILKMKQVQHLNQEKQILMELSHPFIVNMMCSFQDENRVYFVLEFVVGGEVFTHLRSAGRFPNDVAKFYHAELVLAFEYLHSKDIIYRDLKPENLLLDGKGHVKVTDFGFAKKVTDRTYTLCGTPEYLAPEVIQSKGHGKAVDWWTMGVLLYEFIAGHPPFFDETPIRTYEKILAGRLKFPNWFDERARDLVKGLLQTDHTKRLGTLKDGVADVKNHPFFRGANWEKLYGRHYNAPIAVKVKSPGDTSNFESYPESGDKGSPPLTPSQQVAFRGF
Chain of T. brucei PKA (Q9GU80 entry or part of it): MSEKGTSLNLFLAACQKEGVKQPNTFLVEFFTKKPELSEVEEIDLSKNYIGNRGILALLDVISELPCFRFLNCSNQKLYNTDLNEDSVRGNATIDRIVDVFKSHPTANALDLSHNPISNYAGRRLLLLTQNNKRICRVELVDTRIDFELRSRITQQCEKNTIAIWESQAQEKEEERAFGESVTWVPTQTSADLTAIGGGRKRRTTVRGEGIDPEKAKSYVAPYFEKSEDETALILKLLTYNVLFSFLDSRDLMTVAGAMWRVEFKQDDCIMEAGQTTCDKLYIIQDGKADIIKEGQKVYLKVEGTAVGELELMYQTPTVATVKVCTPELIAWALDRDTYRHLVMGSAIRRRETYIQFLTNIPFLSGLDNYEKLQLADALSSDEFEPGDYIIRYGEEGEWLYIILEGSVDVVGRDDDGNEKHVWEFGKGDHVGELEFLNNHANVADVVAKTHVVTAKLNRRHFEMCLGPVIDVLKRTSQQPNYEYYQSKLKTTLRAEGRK

[1] = system: T. brucei ∆pkar/∆pkar (pkar KO) cells; assay: microbe, parasite or virus in culture; type: cell-based, Trypanosoma brucei; details: read-out: EC50, Alamar blue cell viability assay, KO; individual replicate results; pkar KO cells
T. brucei BSF cells (WT) = assay: Alamar blue cell viability assay, wild type; details: read-out: EC50, Alamar blue cell viability assay, WT; individual replicate results; wild type cells;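 also: trypanosomes seeded at 5×10^3 per ml and grown 72 h with compound, then resazurin 0.5 mM added for 4 h as the viability read-out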

SMILES	effect on in vivo PKA activity (VASP phosphorylation), in words (T. brucei PKA)	% VASP phosphorylation (T. brucei PKA; 10 µM)	% VASP phosphorylation (T. brucei PKA; 20 µM)	% VASP phosphorylation (T. brucei PKA; 50 µM)	% VASP phosphorylation (T. brucei PKA; 100 µM)	other results
Nc1nc(Cl)nc2c1ncn2[C@@H]1O[C@H](CO)[C@@H](O)[C@H]1O [2-Cl-Ado, 2-Chloroadenosine]	no effect					
Nc1ncnc2c1c(Br)cn2[C@@H]1O[C@H](CO)[C@@H](O)[C@H]1O [5BrTu]						EC50 [1]: 680 nM and 1190 nM and 1260 nM and 1090 nM and 619 nM and 797 nM and 1170 nM; EC50 (T. brucei BSF cells (WT)): 615 nM and 1550 nM and 1120 nM and 583 nM and 1080 nM and 749 nM and 605 nM and 692 nM
Nc1ncnc2c1c(I)cn2[C@@H]1O[C@H](CO)[C@@H](O)[C@H]1O [5ITu]						EC50 [1]: 365 nM and 366 nM and 542 nM and 168 nM and 345 nM and 276 nM and 265 nM and 448 nM; EC50 (T. brucei BSF cells (WT)): 134 nM and 378 nM and 467 nM and 417 nM and 291 nM and 390 nM and 317 nM and 247 nM
Nc1ncnc2c1cc(Br)n2[C@@H]1O[C@H](CO)[C@@H](O)[C@H]1O [6-Br-Tu, 8-Bromo-7-deazaadenosine]	no effect					
OC[C@H]1O[C@@H](n2cnc3c(Cl)ncnc32)[C@H](O)[C@@H]1O [6-Cl-PuR, 6-Chloropurine riboside]	no effect	20.6897% and 25.2945% and 23.0524%	24.6262% and 26.5882% and 23.4334%	28.7467% and 26.8897% and 25.4464%	33.239% and 35.1611% and 28.0731%	% VASP phosphorylation (T. brucei PKA; 2 µM): 27.0392% and 26.6154% and 24.2815%; % VASP phosphorylation (T. brucei PKA; 5 µM): 24.7092% and 27.9877% and 23.4187%
Nc1ncnc2c1nc(Br)n2[C@@H]1O[C@H](CO)[C@@H](O)[C@H]1O [8-Br-Ado, 8-Bromoadenosine]	no effect					
CO[C@@H]1[C@H](O)[C@@H](CO)O[C@H]1n1c(Sc2ccc(Cl)cc2)nc2c(N)ncnc21 [8-pCPT-2'O-me-Ado]		17.7877% and 18.0048% and 22.1674%	16.9524% and 18.6949% and 22.9783%	17.4825% and 18.9639% and 23.6777%	18.5972% and 20.7972% and 25.3942%	% VASP phosphorylation (T. brucei PKA; 250 µM): 20.7922% and 23.6499% and 24.007%
CO[C@@H]1[C@@H]2OP(=O)(O)OC[C@H]2O[C@H]1n1c(Sc2ccc(Cl)cc2)nc2c(N)ncnc21 [8-pCPT-2'O-me-cAMP]		41.2113% and 39.9561% and 36.9456%	34.7976% and 43.6436% and 30.9578%	31.7213% and 39.4904% and 29.8481%	33.7045% and 41.4368% and 33.2969%	% VASP phosphorylation (T. brucei PKA; 250 µM): 30.1497% and 39.413% and 35.4525%
COC1C2OP(=O)(O)OCC2OC1n1c(Sc2ccc(Cl)cc2)nc2c(=O)[nH]c(N)nc21 (stereo not drawn) [8-pCPT-2'O-me-cGMP]		38.4582% and 35.5972% and 37.6064%	40.2883% and 38.6651% and 38.3333%	40.3308% and 52.7132% and 36.328%	39.4763% and 48.2408% and 35.1104%	% VASP phosphorylation (T. brucei PKA; 250 µM): 43.9368% and 67.0264% and 36.1457%
CO[C@@H]1[C@H](O)[C@@H](CO)O[C@H]1n1c(Sc2ccc(Cl)cc2)nc2c(N)ncnc21 [8-pCPT-2-′O-Me-Ado, 8-(4-Chlorophenylthio)-2'-O-methyladenosine]	slight inhibitory					
CO[C@@H]1[C@@H]2OP(=O)(O)OC[C@H]2O[C@H]1n1c(Sc2ccc(Cl)cc2)nc2c(N)ncnc21 [8-pCPT-2′-O-Me-cAMP, 8-(4-Chlorophenylthio)-2'-O-methyladenosine-3',5'-cyclic monophosphate]	No PKA activation					
Nc1ncnc2nc(Sc3ccc(Cl)cc3)[nH]c12 [8-pCPT-Ade, 8-(4-Chlorophenylthio)adenine]	no effect					
Nc1ncnc2c1nc(Sc1ccc(Cl)cc1)n2[C@@H]1O[C@H](CO)[C@@H](O)[C@H]1O [8-pCPT-Ado, 8-(4-Chlorophenylthio)adenosine]	slight inhibitory					
